US20230372263A1, “METHODS AND COMPOSITIONS FOR TREATING AMYOTROPHIC LATERAL SCLEROSIS” (Amylyx Pharmaceuticals, Inc., priority 2022, published 2023)
Like-named read-outs stand apart in the source and are kept apart here.

Legend:
[1] = Population pharmacokinetic model and simulations of PB and PAA (healthy subjects and ALS patients); parameters: species or system human; settings: for Cmax, Mean: from individual Bayesian (post hoc) parameter estimates; for Cmax, 2.5th percentile / Cmax, 97.5th percentile / Cmax, Geometric mean / Cmax, Median: post hoc Bayesian estimates; for V, volume of distribution of PAA: population PK
Excerpt: The order of administration with and without food was randomly assigned. […] Subjects were advised to take the drug before a meal. […] No inter-occasion variability (IOV) was included.

[2] = Phase I single dose oral AMX0035 fasted/fed plasma pharmacokinetics and food effect (Protocol A35-002); format: in vivo, human; settings: for Frel AUC(0-inf) / Frel AUC(0-last) / Frel Cmax: fed relative to fasted
Experimental: • Protocol AMX3500: sparse sampling in 87 subjects with ALS. Approximately 2 samples are collected for each subject, 1 or 4 hours post dose following 12 and 24 weeks of treatment. • Protocol A35-002: rich sampling in 14 healthy adults. Approximately 21 samples are collected over 24 hours for each subject on two occasions, once following a high fat meal and the other under fasting conditions.
A total of 14 healthy subjects were enrolled in order to have no fewer than 12 subjects complete. A predefined mix of gender was selected.
Each study period followed the same study design (FIG. 1). Subjects were screened for inclusion in the study up to 28 days before dosing. Subjects were admitted to the clinical unit during Study Day −2 for Period 1 and Day −1 for Period 2 and were dosed in the morning of Day 1. On the night prior to Period 1 the subjects in the fasted/fed or fed/fasted sequence were fasted for a minimum of 10 h prior to dosing.
The solution was stirred until the powder was mostly dissolved.
Any departures from the intended regimen were recorded in the eCRFs. All dose administrations were performed in the study center under the supervision of appropriately trained staff.
Subjects were provided with a light snack and were then fasted from all food and drink (except water) until the following morning, when they were provided with a high-fat breakfast. The breakfast was consumed over a maximum period of 25 min, and dosing occurred 30 min after the start of breakfast. Subjects were encouraged to eat their meal evenly over the 25 min period. For this trial the subject was deemed compliant if they consumed >80% of the high-fat standard breakfast.
The subjects in the 24-h baseline and in the fasted condition Period remained fasted up to 4 h post-dose and were offered a standardized meal to be taken between 4.00 and 5.00 h post-dose. Subjects in the fed condition were fasted overnight and received a high-fat standard breakfast 30 minutes pre-dose and then remained fasted for 4.00 to 5.00 h post-dose when they received a standardized meal.
Venous blood samples were withdrawn via an indwelling cannula or by venipuncture according to the time schedule presented in Table 5 Table, Table 6, and Table 7.
Blood samples of approximately 4 mL were collected into 4 mL BD Vacutainer Plastic K2EDTA Tubes with Lavender Hemogard Closure, and was gently inverted approximately 8 times. The tubes were then immediately stored on ice and processed within 60 min of collection by centrifugation at 1500 g for 10 min at 2 to 8° C. The resultant plasma was separated equally into 2 aliquots and transferred to 2 mL appropriately labelled primary and backup polypropylene cryovials.
Actual elapsed time from dosing was to be used for the final plasma PK parameter calculations after database lock.

[3] = single dose AMX0035 fasted, Geometric Mean
[4] = single dose AMX0035 fasted, Max
[5] = single dose AMX0035 fasted, Median
[6] = single dose AMX0035 fasted, Min
[7] = single dose AMX0035 fed, Geometric Mean
[8] = single dose AMX0035 fed, Median

O=C(O)Cc1ccccc1 [PAA, phenylacetate]
Cmax, Mean ([1]; ALS patients, Fasting): 24.1 µg/mL
Cmax, 2.5th percentile ([1]; ALS patients, Fasting): 10.1 µg/mL
Cmax, 97.5th percentile ([1]; ALS patients, Fasting): 44.2 µg/mL
Cmax, Geometric mean ([1]; ALS patients, Fasting): 22.3 µg/mL
Cmax, Median ([1]; ALS patients, Fasting): 23.8 µg/mL
Cmax, Mean ([1]; ALS patients, Fed): 16.6 µg/mL
Cmax, 2.5th percentile ([1]; ALS patients, Fed): 8.16 µg/mL
Cmax, 97.5th percentile ([1]; ALS patients, Fed): 25.3 µg/mL
Cmax, Geometric mean ([1]; ALS patients, Fed): 15.6 µg/mL
Cmax, Median ([1]; ALS patients, Fed): 16.9 µg/mL
estimated steady-state mean Cmax ([1]; ALS patients, based on population PK): 24.1 µg/mL
V, volume of distribution of PAA ([1]; Bootstrap Median): 56.1 L
V, volume of distribution of PAA ([1]; Final Model mean estimate): 56.3 L
T1/2 ([2]; Table 1: fasted, geometric mean (CV%), terminal half-life): 48.8 min
Tmax ([2]; Table 1: fasted, median (range)): 150 min
AUC(0-inf) ([2]; both sexes, human, in vivo, Table 1: fasted, geometric mean (CV%), read-out: AUC(0-inf)): 83.4 µg·h/mL
half-life ([2]; both sexes, human, in vivo, Table 1: fasted, geometric mean (CV%), terminal half-life, read-out: T1/2 (converted)): 48.6 min
half-life ([2]; both sexes, human, in vivo, fasted, read-out: elimination half-lives (range)): 41.4 to 57 min
half-life ([2]; both sexes, human, in vivo, fed, read-out: elimination half-lives (range)): 36 to 62.4 min
Cmax ([2]; both sexes, human, in vivo, po, Table 1: single oral dose ALBRIOZA, healthy subjects, fasted, geometric mean (CV%), read-out: Cmax): 26.4 µg/mL
AUC(0-inf) ([2]; both sexes, human, in vivo, po, single oral AMX0035, Fasted (N = 13), healthy subjects, PK analysis subset, read-out: AUC(0-inf), Adj Geo Mean): 84.8 µg·h/mL
AUC(0-t) ([2]; both sexes, human, in vivo, po, single oral AMX0035, Fasted (N = 13), healthy subjects, PK analysis subset, read-out: AUC(0-last), Adj Geo Mean): 83.2 µg·h/mL
Cmax ([2]; both sexes, human, in vivo, po, single oral AMX0035, Fasted (N = 13), healthy subjects, PK analysis subset, read-out: Cmax, Adj Geo Mean): 26.6 µg/mL
AUC(0-inf) ([2]; both sexes, human, in vivo, po, single oral AMX0035, Fed (N = 13), healthy subjects, PK analysis subset, read-out: AUC(0-inf), Adj Geo Mean): 59.8 µg·h/mL
AUC(0-t) ([2]; both sexes, human, in vivo, po, single oral AMX0035, Fed (N = 13), healthy subjects, PK analysis subset, read-out: AUC(0-last), Adj Geo Mean): 58.2 µg·h/mL
Cmax ([2]; both sexes, human, in vivo, po, single oral AMX0035, Fed (N = 13), healthy subjects, PK analysis subset, read-out: Cmax, Adj Geo Mean): 16.1 µg/mL
Cmax ([2]; both sexes, human, in vivo, single dose AMX0035, healthy subjects, fasting, read-out: mean Cmax): 26.4 µg/mL
AUC(0-inf) ([2]; both sexes, human, in vivo, single dose AMX0035 fasted, Geometric Mean, read-out: AUC(0-inf)): 83.4 µg·h/mL
AUC(0-t) ([2]; both sexes, human, in vivo, single dose AMX0035 fasted, Geometric Mean, read-out: AUC(0-last)): 81.8 µg·h/mL
Cmax ([2]; both sexes, human, in vivo, single dose AMX0035 fasted, Geometric Mean, read-out: Cmax): 26.4 µg/mL
half-life ([2]; both sexes, human, in vivo, single dose AMX0035 fasted, Geometric Mean, read-out: T1/2 (converted)): 48.8 min
AUC(0-inf) ([2]; both sexes, human, in vivo, single dose AMX0035 fasted, Median, read-out: AUC(0-inf)): 80.7 µg·h/mL
AUC(0-t) ([2]; both sexes, human, in vivo, single dose AMX0035 fasted, Median, read-out: AUC(0-last)): 79.3 µg·h/mL
Cmax ([2]; both sexes, human, in vivo, single dose AMX0035 fasted, Median, read-out: Cmax): 27.7 µg/mL
half-life ([2]; both sexes, human, in vivo, single dose AMX0035 fasted, Median, read-out: T1/2 (converted)): 50 min
AUC(0-inf) ([2]; both sexes, human, in vivo, single dose AMX0035 fed, Geometric Mean, read-out: AUC(0-inf)): 58.3 µg·h/mL
AUC(0-t) ([2]; both sexes, human, in vivo, single dose AMX0035 fed, Geometric Mean, read-out: AUC(0-last)): 56.7 µg·h/mL
Cmax ([2]; both sexes, human, in vivo, single dose AMX0035 fed, Geometric Mean, read-out: Cmax): 15.9 µg/mL
half-life ([2]; both sexes, human, in vivo, single dose AMX0035 fed, Geometric Mean, read-out: T1/2 (converted)): 46.8 min
AUC(0-inf) ([2]; both sexes, human, in vivo, single dose AMX0035 fed, Median, read-out: AUC(0-inf)): 54.5 µg·h/mL
AUC(0-t) ([2]; both sexes, human, in vivo, single dose AMX0035 fed, Median, read-out: AUC(0-last)): 53.1 µg·h/mL
Cmax ([2]; both sexes, human, in vivo, single dose AMX0035 fed, Median, read-out: Cmax): 16 µg/mL
half-life ([2]; both sexes, human, in vivo, single dose AMX0035 fed, Median, read-out: T1/2 (converted)): 47 min
Tmax ([2]; both sexes, human, in vivo, non parametric analysis, PK analysis subset, Fasted, read-out: Tmax Median): 150 min
peak exposure to metabolite as % of that for parent ([2]; fasted): approximately 14%
time from which plasma concentrations were evident ([2]; fasted): 0.25 h
total exposure to metabolite based on AUC(0-inf) as % of that for parent ([2]; fasted): approximately 35%
peak exposure to metabolite as % of that for parent ([2]; fed): approximately 34%
total exposure to metabolite based on AUC(0-inf) as % of that for parent ([2]; fed): approximately 48%
Frel AUC(0-inf) ([2]; Geometric Mean): 70.606%
Frel AUC(0-last) ([2]; Geometric Mean): 70.024%
Frel Cmax ([2]; Geometric Mean): 60.480%
Frel AUC(0-inf) ([2]; Max): 91.45%
Frel AUC(0-last) ([2]; Max): 91.27%
Frel Cmax ([2]; Max): 86.29%
Frel AUC(0-inf) ([2]; Median): 70.563%
Frel AUC(0-last) ([2]; Median): 69.952%
Frel Cmax ([2]; Median): 58.065%
Frel AUC(0-inf) ([2]; Min): 58.16%
Frel AUC(0-last) ([2]; Min): 57.31%
Frel Cmax ([2]; Min): 45.73%
Tmax Median ([2]; non parametric analysis, PK analysis subset, Fed): 150 min
AUCextrap [2, 3]: 1.779%
Lambda-z [2, 3]: 0.8527 h⁻¹
AUC(0-inf) [2, 4]: 142 µg·h/mL
AUC(0-last) [2, 4]: 141 µg·h/mL
AUCextrap [2, 4]: 3.18%
Lambda-z [2, 4]: 0.9999 h⁻¹
T1/2 [2, 4]: 57 min
Tmax [2, 4]: 210 min
AUCextrap [2, 5]: 1.963%
Lambda-z [2, 5]: 0.8310 h⁻¹
Tmax [2, 5]: 150 min
AUC(0-inf) [2, 6]: 45.2 µg·h/mL
AUC(0-last) [2, 6]: 43.8 µg·h/mL
AUCextrap [2, 6]: 1.06%
Lambda-z [2, 6]: 0.7287 h⁻¹
T1/2 [2, 6]: 41.4 min
Tmax [2, 6]: 90 min
AUCextrap [2, 7]: 2.485%
Lambda-z [2, 7]: 0.8886 h⁻¹
AUC(0-inf) ([2]; single dose AMX0035 fed, Max): 130 µg·h/mL
AUC(0-last) ([2]; single dose AMX0035 fed, Max): 128 µg·h/mL
AUCextrap ([2]; single dose AMX0035 fed, Max): 4.13%
Lambda-z ([2]; single dose AMX0035 fed, Max): 1.1486 h⁻¹
T1/2 ([2]; single dose AMX0035 fed, Max): 62.4 min
Tmax ([2]; single dose AMX0035 fed, Max): 270 min
AUCextrap [2, 8]: 2.680%
Lambda-z [2, 8]: 0.8899 h⁻¹
Tmax [2, 8]: 150 min
AUC(0-inf) ([2]; single dose AMX0035 fed, Min): 31.9 µg·h/mL
AUC(0-last) ([2]; single dose AMX0035 fed, Min): 30.6 µg·h/mL
AUCextrap ([2]; single dose AMX0035 fed, Min): 1.26%
Lambda-z ([2]; single dose AMX0035 fed, Min): 0.6696 h⁻¹
T1/2 ([2]; single dose AMX0035 fed, Min): 36 min
Tmax ([2]; single dose AMX0035 fed, Min): 120 min
higher exposure in females compared to males ([2]; single oral dose, fed and fasted): ~31%
